Laboratory results taken from publication PMC8397297 (ACS Chemical Neuroscience, 2021).

Columns and labels:
paclitaxel-treated mice = assay: paclitaxel-induced peripheral neuropathy, heat nociceptive threshold (hot plate test); assay type: in vivo, mouse; conditions: for effect on latency to pain reaction (heat), hot plate test: day of paclitaxel administration (paclitaxel-induced hypoalgesia); for effect on thermal nociceptive threshold, hot plate test: seven days after paclitaxel administration, i.p.
Procedure: (§1) Before the in vivo tests, the test compounds were suspended in 1% Tween 80 (Baxter, Poland). The compounds were then administered intraperitoneally. […] The test compounds were administered only once daily on days 1 and 7 of oxaliplatin- or paclitaxel-induced neuropathy. In STZ-treated mice, test compounds were administered 21 days after STZ injection. Control mice used in oxaliplatin and paclitaxel NP models were injected with an appropriate amount of vehicle (0.9% saline). Oxaliplatin was purchased from Activate Scientific GmbH (Germany). Paclitaxel and STZ were purchased from Sigma-Aldrich (Poland).
Doses of both paclitaxel and STZ used for the induction of neuropathy were selected based on our previous research.[66],[67] To induce neuropathy, paclitaxel was used at a dose of 18 mg/kg. It was prepared by dissolving in ethanol (100% (v/v); Polskie Odczynniki Chemiczne, Gliwice, Poland) at 10% of the final desired volume and vortexed for 2 min. An equal volume of Cremophor EL (10% of the final volume) was then added, and the mixture was vortexed for the next 10 min. Prior to injection, ice-cold physiological saline (80% of the final volume) was added to make up a final volume and the solution was maintained on ice during dosing.[66] To induce type I diabetes, mice were intraperitoneally injected with STZ (a single injection of STZ, 200 mg/kg) dissolved in 0.1 N citrate buffer. Age-matched control mice received an equal volume of citrate buffer. Blood glucose level was measured 1 day before (referred to as “day 0”) and repeatedly 1, 2, and 3 weeks after STZ injection using a blood glucose monitoring system (Accu-Chek Active, Roche, France). Blood samples for measurement of glucose concentration were obtained from the tail vein of the mice. The animals were considered as diabetic when their blood glucose concentration exceeded 300 mg/dL,[68] and only these mice (diabetic mice) were used in subsequent pain tests.[67]
Thermal (heat) nociceptive threshold was assessed in the hot plate test as previously described.[67] First, baseline (predrug) latencies to pain reaction were established for each mouse. Then, the mice were treated intraperitoneally with either the test compound or vehicle. Sixty minutes later the animals were placed on the hot plate apparatus again (hot/cold plate, Bioseb, France). This apparatus has an electrically heated surface and is supplied with a temperature-controller that maintains the temperature at 55 °C. The time until the animal licked its hind paws or jumped was recorded by means of a stop-watch. In this assay a cutoff time was established (60 s) to avoid tissue damage, and the mice not responding within 60 s were removed from the apparatus and assigned a score of 60 s.

STZ-treated mice = assay: diabetic STZ-induced peripheral neuropathy, tactile allodynia (von Frey test); assay type: in vivo, mouse; conditions: 21 days after STZ, i.p., doses 10 and 30 mg/kg
Procedure: as §1
Doses of both paclitaxel and STZ used for the induction of neuropathy were selected based on our previous research.[66],[67] To induce neuropathy, paclitaxel was used at a dose of 18 mg/kg. […] Blood glucose level was measured 1 day before (referred to as “day 0”) and repeatedly 1, 2, and 3 weeks after STZ injection using a blood glucose monitoring system (Accu-Chek Active, Roche, France). […]
The ability of the test compounds to attenuate tactile allodynia caused by oxaliplatin, paclitaxel, and STZ was assessed using the von Frey test. For this purpose, 3 h after oxaliplatin or paclitaxel and 21 days after STZ injection, the predrug paw withdrawal threshold was measured for each mouse. […]

[1] = HepG2 hepatoma cell-based hepatotoxicity assay (MTS); conditions: human, HepG2 hepatoma cells; 25 μM, 72 h, control 1% DMSO in culture media; read-out: HepG2 cell viability compared to the control
Procedure: To investigate the safety of compounds 2RS,4RS-39c, 50a, and 56a, a HepG2 hepatoma cell-based hepatotoxicity assay was used. Compounds were tested at six concentrations (0.1–100 μM).
Hepatotoxicity and cytotoxicity were estimated according to previously described protocols[62] using the hepatoma HepG2 (ATCC HB-8065) and human embryonic kidney HEK-293 (ATCC CRL1573) cell lines, respectively. In brief, cells were seeded in 96-well plates at a density of 0.7 × 10^4 and cultured at 37 °C in an atmosphere containing 5% CO2. Next, the compounds were added and investigated in quadruplicate at concentrations ranging from 0.1 to 100 μM for 72 h. The antiproliferative drug DX was used as the reference. The CellTiter 96 AQueous nonradioactive cell proliferation assay (MTS) purchased from Promega (Madison, WI, USA) was used for the determination of cell viability. The absorbance at 492 nm was measured using an EnSpire microplate reader (PerkinElmer, Waltham, MA, USA).

Compound	effect on latency to pain reaction (heat), hot plate test (paclitaxel-treated mice; 30 mg/kg i.p.)	effect on thermal nociceptive threshold, hot plate test (paclitaxel-treated mice)	effect on mechanical nociceptive threshold (tactile allodynia), von Frey test (STZ-treated mice)	viability at 72 h, 25 µM [1] [%]	effect on latency to pain reaction (heat), hot plate test (paclitaxel-treated mice; 10 mg/kg i.p.)
CN(CCON=C(c1ccccc1)c1ccccc1)C(CCN)C(=O)NCc1ccccc1Cl (centres unmarked) [Compound 50a, 4-Amino-N-[(2-chlorophenyl)methyl]-2-[(2-{[(diphenylmethylidene)amino]oxy}ethyl)(methyl)amino]butanamide]	reduced latency to pain reaction	did not reveal the effect of paclitaxel and compounds 50a and 56a on the thermal nociceptive threshold	effective only at the dose of 30 mg/kg		
CN(CCC=C1c2ccccc2CCc2ccccc21)C(CO)C(=O)NCc1ccccc1 (centres unmarked) [Compound 56a, N-Benzyl-2-((3-(10,11-dihydro-5H-dibenzo[a,d][7]annulen-5-ylidene)propyl)(methyl)amino)-3-hydroxypropanamide]	reduced latency to pain reaction	did not reveal the effect of paclitaxel and compounds 50a and 56a on the thermal nociceptive threshold	effective only at the dose of 30 mg/kg	100	reduced latency to pain reaction
